How the values were obtained:
[1] = Acute Oral Toxicity (7 day observation in the mouse); type: in vivo
[2] = Cytotoxicity (MEM Elution) of organic antimicrobial valve material; type: cell-based

Row | Structure (SMILES) | Acute Oral Toxicity (7 day observation in the mouse) [1] | Cytotoxicity (MEM Elution) on the device with valve material [2] | Cytotoxicity (MEM Elution) on the valve material alone ([2]; valve material alone)
1 | CCCCOC(=O)c1ccc(O)cc1 [Butyl Paraben, butyl p-hydroxy Benzoate] | Nontoxic | Nontoxic | –
2 | Oc1cc(Cl)ccc1Oc1ccc(Cl)cc1Cl [Triclosan, 2,4,4′-trichloro-2′-hydroxydiphenyl ether] | Nontoxic | Nontoxic | Toxic
